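96-well plates; 48 h exposure; 5 concentrations. Endpoints by linear interpolation between flanking doses. Not reached: highest tested concentration assigned. At the GI50, growth is halved. TGI marks complete inhibition of growth.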
Legend:
Assay in all cases: growth of human tumour cells (NCI), 48 h
CAKI-1 renal = tested on: CAKI-1 renal
BT-549 breast = tested on: BT-549 breast
786-0 renal = tested on: 786-0 renal
HOP-92 NSCLC = tested on: HOP-92 NSCLC
COLO 205 colon = tested on: COLO 205 colon
HCC-2998 colon = tested on: HCC-2998 colon
HS 578T breast = tested on: HS 578T breast
EKVX NSCLC = tested on: EKVX NSCLC
A498 renal = tested on: A498 renal
SK-MEL-28 melanoma = tested on: SK-MEL-28 melanoma
A549 NSCLC = tested on: A549 NSCLC
SNB-75 CNS = tested on: SNB-75 CNS
M14 melanoma = tested on: M14 melanoma
DU-145 prostate = tested on: DU-145 prostate
SF-268 CNS = tested on: SF-268 CNS
OVCAR-8 ovarian = tested on: OVCAR-8 ovarian
SW-620 colon = tested on: SW-620 colon
RPMI-8226 leukemia = tested on: RPMI-8226 leukemia
MOLT-4 leukemia = tested on: MOLT-4 leukemia
NCI/ADR-RES ovarian = tested on: NCI/ADR-RES ovarian
SN12C renal = tested on: SN12C renal
T-47D breast = tested on: T-47D breast
HT29 colon = tested on: HT29 colon
SF-295 CNS = tested on: SF-295 CNS
K-562 leukemia = tested on: K-562 leukemia
KM12 colon = tested on: KM12 colon
RXF 393 renal = tested on: RXF 393 renal
NCI-H23 lung = tested on: NCI-H23 lung
ACHN renal = tested on: ACHN renal
OVCAR-5 ovarian = tested on: OVCAR-5 ovarian
SK-OV-3 ovarian = tested on: SK-OV-3 ovarian
SF-539 CNS = tested on: SF-539 CNS
MDA-MB-231 breast = tested on: MDA-MB-231 breast
UACC-257 melanoma = tested on: UACC-257 melanoma
MDA-MB-435 = tested on: MDA-MB-435
CCRF-CEM leukemia = tested on: CCRF-CEM leukemia
OVCAR-4 ovarian = tested on: OVCAR-4 ovarian
SR leukemia = tested on: SR leukemia
IGROV1 ovarian = tested on: IGROV1 ovarian
NCI-H460 lung = tested on: NCI-H460 lung
HOP-62 NSCLC = tested on: HOP-62 NSCLC
UO-31 renal = tested on: UO-31 renal
HL-60(TB) leukemia = tested on: HL-60(TB) leukemia
MCF7 breast = tested on: MCF7 breast
PC-3 prostate = tested on: PC-3 prostate
OVCAR-3 ovarian = tested on: OVCAR-3 ovarian
HCT-15 colon = tested on: HCT-15 colon
SK-MEL-5 melanoma = tested on: SK-MEL-5 melanoma
MALME-3M melanoma = tested on: MALME-3M melanoma
NCI-H226 lung = tested on: NCI-H226 lung
TK-10 renal = tested on: TK-10 renal
UACC-62 melanoma = tested on: UACC-62 melanoma
U251 CNS = tested on: U251 CNS
LOX IMVI melanoma = tested on: LOX IMVI melanoma
SNB-19 CNS = tested on: SNB-19 CNS
HCT-116 colon = tested on: HCT-116 colon
SK-MEL-2 melanoma = tested on: SK-MEL-2 melanoma

Compound `COc1ccc(-c2cc3c(OC)c(OC)c(OC)cc3oc2=O)cc1` has a GI50 (CAKI-1 renal) of 4.59 µM, a TGI (CAKI-1 renal) of over 100 µM and a GI50 (BT-549 breast) of 5.85 µM. For the same compound, the TGI (BT-549 breast) was 71.6 µM, the GI50 (786-0 renal) was 6.91 µM and the TGI (786-0 renal) was over 100 µM. It also gave a GI50 (HOP-92 NSCLC) of 2610 nM, a TGI (HOP-92 NSCLC) of 22.4 µM and a GI50 (COLO 205 colon) of 3.66 µM. For the same compound, the TGI (COLO 205 colon) was 14.7 µM, the GI50 (HCC-2998 colon) was 4.41 µM and the TGI (HCC-2998 colon) was over 100 µM. The GI50 (HS 578T breast) was 2590 nM, the TGI (HS 578T breast) was 7.96 µM and the GI50 (EKVX NSCLC) was 8.32 µM. It also gave a TGI (EKVX NSCLC) of over 100 µM, a GI50 (A498 renal) of 1700 nM and a TGI (A498 renal) of 6.98 µM. The GI50 (SK-MEL-28 melanoma) was 5.28 µM, the TGI (SK-MEL-28 melanoma) was over 100 µM and the GI50 (A549 NSCLC) was 4.62 µM. For the same compound, the TGI (A549 NSCLC) was over 100 µM, the GI50 (SNB-75 CNS) was 3.39 µM and the TGI (SNB-75 CNS) was 23 µM. For the same compound, the GI50 (M14 melanoma) was 3.31 µM, the TGI (M14 melanoma) was over 100 µM and the GI50 (DU-145 prostate) was 4.51 µM. It also gave a TGI (DU-145 prostate) of 59.9 µM, a GI50 (SF-268 CNS) of 4.95 µM and a TGI (SF-268 CNS) of 90.9 µM. The GI50 (OVCAR-8 ovarian) was 5 µM, the TGI (OVCAR-8 ovarian) was over 100 µM and the GI50 (SW-620 colon) was 2790 nM. The TGI (SW-620 colon) was over 100 µM, the GI50 (RPMI-8226 leukemia) was 2320 nM and the TGI (RPMI-8226 leukemia) was 17 µM. It also gave a GI50 (MOLT-4 leukemia) of 3.92 µM, a TGI (MOLT-4 leukemia) of 22.2 µM and a GI50 (NCI/ADR-RES ovarian) of 2020 nM. The TGI (NCI/ADR-RES ovarian) was 7.72 µM, the GI50 (SN12C renal) was 5.04 µM and the TGI (SN12C renal) was over 100 µM. It also gave a GI50 (T-47D breast) of 5.02 µM, a TGI (T-47D breast) of 92.3 µM and a GI50 (HT29 colon) of 3.42 µM. The TGI (HT29 colon) was 13.1 µM, the GI50 (SF-295 CNS) was 4.63 µM and the TGI (SF-295 CNS) was over 100 µM. For the same compound, the GI50 (K-562 leukemia) was 2020 nM, the TGI (K-562 leukemia) was over 100 µM and the GI50 (KM12 colon) was 1790 nM. For the same compound, the TGI (KM12 colon) was over 100 µM, the GI50 (RXF 393 renal) was 5.91 µM and the TGI (RXF 393 renal) was 63.5 µM. The GI50 (NCI-H23 lung) was 3.49 µM, the TGI (NCI-H23 lung) was over 100 µM and the GI50 (ACHN renal) was 7.47 µM. For the same compound, the TGI (ACHN renal) was over 100 µM, the GI50 (OVCAR-5 ovarian) was 17.8 µM and the TGI (OVCAR-5 ovarian) was over 100 µM. The GI50 (SK-OV-3 ovarian) was 4.67 µM, the TGI (SK-OV-3 ovarian) was 82.2 µM and the GI50 (SF-539 CNS) was 4.09 µM. The TGI (SF-539 CNS) was 22.9 µM, the GI50 (MDA-MB-231 breast) was 4.91 µM and the TGI (MDA-MB-231 breast) was 62.5 µM. It also gave a GI50 (UACC-257 melanoma) of 5.47 µM, a TGI (UACC-257 melanoma) of over 100 µM and a GI50 (MDA-MB-435) of 444 nM. The TGI (MDA-MB-435) was 2370 nM, the GI50 (CCRF-CEM leukemia) was 3.1 µM and the TGI (CCRF-CEM leukemia) was 45.9 µM. It also gave a GI50 (OVCAR-4 ovarian) of 7.6 µM, a TGI (OVCAR-4 ovarian) of over 100 µM and a GI50 (SR leukemia) of 1110 nM. It also gave a TGI (SR leukemia) of 12.7 µM, a GI50 (IGROV1 ovarian) of 5.81 µM and a TGI (IGROV1 ovarian) of over 100 µM. For the same compound, the GI50 (NCI-H460 lung) was 3.48 µM, the TGI (NCI-H460 lung) was 17 µM and the GI50 (HOP-62 NSCLC) was 4.68 µM. It also gave a TGI (HOP-62 NSCLC) of over 100 µM, a GI50 (UO-31 renal) of 5.59 µM and a TGI (UO-31 renal) of 48.8 µM. It also gave a GI50 (HL-60(TB) leukemia) of 2950 nM, a TGI (HL-60(TB) leukemia) of 12.8 µM and a GI50 (MCF7 breast) of 3.69 µM. The TGI (MCF7 breast) was over 100 µM, the GI50 (PC-3 prostate) was 7.42 µM and the TGI (PC-3 prostate) was over 100 µM. The GI50 (OVCAR-3 ovarian) was 2680 nM, the TGI (OVCAR-3 ovarian) was 6.45 µM and the GI50 (HCT-15 colon) was 3.43 µM. It also gave a TGI (HCT-15 colon) of over 100 µM, a GI50 (SK-MEL-5 melanoma) of 2570 nM and a TGI (SK-MEL-5 melanoma) of 8.51 µM. The GI50 (MALME-3M melanoma) was 4.37 µM, the TGI (MALME-3M melanoma) was over 100 µM and the GI50 (NCI-H226 lung) was 13.3 µM. For the same compound, the TGI (NCI-H226 lung) was 78.8 µM, the GI50 (TK-10 renal) was 5.11 µM and the TGI (TK-10 renal) was 65 µM. It also gave a GI50 (UACC-62 melanoma) of 3.95 µM, a TGI (UACC-62 melanoma) of over 100 µM and a GI50 (U251 CNS) of 4.27 µM. The TGI (U251 CNS) was over 100 µM, the GI50 (LOX IMVI melanoma) was 5.32 µM and the TGI (LOX IMVI melanoma) was over 100 µM. The GI50 (SNB-19 CNS) was 5.95 µM, the TGI (SNB-19 CNS) was over 100 µM and the GI50 (HCT-116 colon) was 3.97 µM. It also gave a TGI (HCT-116 colon) of 18.6 µM, a GI50 (SK-MEL-2 melanoma) of 3.48 µM and a TGI (SK-MEL-2 melanoma) of over 100 µM.
